Test results taken from patent US20080268041A1, “COMBINATION OF PROGESTERONE-RECEPTOR ANTAGONIST TOGETHER WITH NONE-STEROIDAL ANTIESTROGEN FOR USE IN BRCA MEDIATED DISEASES” (priority 2007, published 2008).

Columns and labels:
[1] = tested on: NMU-induced rat mammary carcinomas; test: NMU-induced mammary tumor model in female rats, 4 weeks treatment; format: in vivo, female Sprague-Dawley rats; details: for Median tumor weight: 1 mg/kg p.o. daily for 4 weeks (combination 1 + 1 mg/kg), of 10 animals, control 15200, ovariectomy 0; for Tumor growth inhibition compared to control (procentual change of tumor area): 1 mg/kg p.o. each, 4 weeks, Kruskal-Wallis-test
Protocol: Tumors were induced by a single intravenous injection of NMU (50 mg/kg) in female Sprague-Dawley rats (Tierzucht Schönwalde, age 50-55 days). Rats with at least one established tumor with a size of minimal 150 mm^2 were treated for 4 weeks by
1) Solvent control, 2) Ovariectomy (at treatment start), 3) The progesterone receptor antagonist 11β-(4-acetylphenyl)-17β-hydroxy-17α(1,1,2,2,2-pentafluoroethyl)-estra-4,9-dien-3-one, 1 mg/kg p.o., 4) Tamoxifen, 1 mg/kg p.o., 5) The progesterone receptor antagonist 11β-(4-acetylphenyl)-17β-hydroxy-17α(1,1,2,2,2-pentafluoroethyl)-estra-4,9-dien-3-one, 1 mg/kg p.o. and Tamoxifen, 1 mg/kg p.o. daily.
As parameter for growth inhibition the procentual change of tumor area determined by weekly caliper measurements was used. For statistical analysis of intergroup differences of mean values the Kruskal-Wallis-test was used.

[2] = tested on: MCF-10 mammary cells with BRCA1 and BRCA2 knock down; test: Growth of MCF-10 mammary cells with siRNA knock down of BRCA1 and BRCA2, stimulated with progesterone and/or estrogens; format: cell-based; details: co-treatment, in the presence of progesterone
Protocol: MCF-10 mammary cells obtained from ATCC were treated with siRNA knocking down the BRCA1 and BRCA2 gene.
(§1) Cell growth in comparison to untransfected and mock transfected cells was compared. In a second step cells were stimulated either with progesterone and/or with estrogens. […] The effects on progesterone receptor protein expression were further investigated.

progesterone receptor [3] = molecular target: T1, progesterone receptor (Homo sapiens, UniProt P06401); details: Fuhrmann et al., J. Med. Chem. 2000; cited from earlier work
T1 sequence (P06401 1-933): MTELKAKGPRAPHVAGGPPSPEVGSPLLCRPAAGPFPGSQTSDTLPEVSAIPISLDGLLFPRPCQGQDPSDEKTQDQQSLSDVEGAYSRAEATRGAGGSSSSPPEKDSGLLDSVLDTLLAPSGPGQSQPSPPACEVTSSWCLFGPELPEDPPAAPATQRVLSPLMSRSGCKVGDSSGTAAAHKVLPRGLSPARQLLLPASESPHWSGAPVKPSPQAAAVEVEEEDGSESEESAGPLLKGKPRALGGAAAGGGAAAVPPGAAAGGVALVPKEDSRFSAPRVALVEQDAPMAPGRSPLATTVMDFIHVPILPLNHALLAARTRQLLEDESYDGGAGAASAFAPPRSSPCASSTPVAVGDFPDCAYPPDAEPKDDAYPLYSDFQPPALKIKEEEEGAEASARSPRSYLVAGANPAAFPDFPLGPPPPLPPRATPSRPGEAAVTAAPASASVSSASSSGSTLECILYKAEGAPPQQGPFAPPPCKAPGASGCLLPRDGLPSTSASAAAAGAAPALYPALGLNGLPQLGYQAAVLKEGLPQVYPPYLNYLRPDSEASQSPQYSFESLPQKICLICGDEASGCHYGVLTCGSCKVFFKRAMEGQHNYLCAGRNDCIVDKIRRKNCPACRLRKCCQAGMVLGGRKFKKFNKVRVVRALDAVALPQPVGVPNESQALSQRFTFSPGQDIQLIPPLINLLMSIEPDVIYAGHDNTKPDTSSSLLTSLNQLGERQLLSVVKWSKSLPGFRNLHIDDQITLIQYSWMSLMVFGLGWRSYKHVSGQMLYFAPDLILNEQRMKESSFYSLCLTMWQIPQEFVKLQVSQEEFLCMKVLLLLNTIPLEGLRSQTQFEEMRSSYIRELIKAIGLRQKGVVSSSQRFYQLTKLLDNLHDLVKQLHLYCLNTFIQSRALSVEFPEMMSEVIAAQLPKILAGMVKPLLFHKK

progesterone receptor [4] = molecular target: T1, progesterone receptor; test: Progesterone receptor protein expression/stability after siRNA knock down of BRCA1; format: cell-based
From the text: as §1

[5] = tested on: Brca1/p53-deficient mice mammary tumors; details: BRCA1- or BRCA2 inactivated in mammary glands; Poole et al., Science 2006; cited from earlier work

Row | Increased stability of progesterone receptor after BRCA1 knock down (progesterone receptor [4]) | Structure (SMILES) | Median tumor weight [1] | Tumor growth inhibition compared to control (procentual change of tumor area) [1] | Growth/proliferation of BRCA1 knock down cells [2] | Antiprogestagenic activity (progesterone receptor [3]) | Development of mammary tumors in mice [5]
1 |  | CC/C(=C(\c1ccccc1)c1ccc(OCCN(C)C)cc1)c1ccccc1 [Tamoxifen, reference compound] | 2950 mg | not significant different to the untreated control group |  |  | 
2 | could be antagonized | CC(=O)c1ccc([C@H]2C[C@@]3(C)[C@@H](CC[C@@]3(O)C(F)(F)C(F)(F)F)[C@@H]3CCC4=CC(=O)CCC4=C32)cc1 [11β-(4-acetylphenyl)-17β-hydroxy-17α-(1,1,2,2,2-pentafluoroethyl)-estra-4,9-dien-3-one] | 1800 mg | not significant different to the untreated control group | able to antagonize the effects of BRCA1 knock down | high antiprogestagenic activity | 
3 |  | CC#C[C@]1(O)CC[C@H]2[C@@H]3CCC4=CC(=O)CCC4=C3[C@@H](c3ccc(N(C)C)cc3)C[C@@]21C [mifepristone] |  |  |  |  | blocks the development of mammary tumors
